In one test the test system is ESBL E. coli. Kind of test: Chequerboard assay (OD600, MIC and FIC) of 4-mer combinations against ESBL E. coli. It counts as cell-based. The following applies: for MIC combination therapy (Y): drug in 4-mer ceftazidime, doxycycline; for MIC Monotherapy (X): drug alone; for Ratio Y:X: MIC combination / MIC monotherapy. An excerpt: (§1) Synergy is not predictable or expected when two or more actives are used in combination. […] One of the ways to assess whether synergy has been observed is to use the “chequerboard” technique. This is a well-accepted method that leads to the generation of a value called the fractional inhibitory concentration index (FICI). Orhan et al., J. Clin. Microbiol. 2005, 43(1):140 describes the chequerboard method and analysis in the paragraph bridging pages 140-141, and explains that the FICI value is a ratio of the sum of the MIC (Minimum Inhibitory Concentration) level of each individual component alone and in the mixture.
FICI or fractional inhibitory concentration index is the sum of the FICs of each antimicrobial when used in combination. The FIC or fractional inhibitory concentration of an antimicrobial in a combination, is the MIC of the antimicrobial in the combination divided by the MIC of the same antimicrobial when used alone. Minimum inhibitory concentrations are defined in the art as the lowest concentration of an antimicrobial that will inhibit the visible growth of a microorganism after overnight incubation.
There has in fact been very little previous work in this field. […] This method is applicable for any combination with “n” antimicrobial agents.
In this method, two antibiotics were “fixed” as part of a backbone whilst the two other antibiotics were varied over a doubling concentration scale beginning at the MIC (×1) for the effective dose in monotherapy against the organism being tested. The ΣFIC was then calculated as shown below.
The ΣFIC was divided by “0.5/n” where n=number of antimicrobials in the combination to provide FIC. The inventors opted for this expression because it more closely aligns with the 2-mer synergy levels. The same FIC scale as used for 2-mers was applied: synergy is observed when FIC is <0.5. An “Additive” effect is observed when FIC is 0.5 to <1. Indifference is observed when FIC is 1 to <2. Antagonism is observed when FIC is 2 to 4.
Synergy can be expressed as “ΣFIC≤0.25×n”.
The above method was used in the Examples herein.
The antimicrobial agents were sourced from commercially available sources. They were prepared by being weighed and dissolved in water, PBS, DMSO or acidified water to a final concentration from 1-10 mg/mL. Antimicrobial solutions were diluted to 10× highest concentration used in the experiment and subsequently diluted 2x over a series not exceeding 11 serial dilutions. These left the operator with a maximum of 12 different, descending concentrations of the chosen antimicrobials.
The bacteria were obtained from Ninewells Hospital and Medical School in Dundee, Scotland. They were obtained as patient strains and characterised by Vitek 2 screening. To prepare for the Examples below, the bacteria were grown overnight in Mueller Hinton Cation adjusted broth or until confluent in media with or without supplements. The bacteria were measured for OD600 and readings of <0.25 were returned to the incubator.
All data herein was produced using the same chequerboard assay.
20 uL of antibiotic A (backbone) and 20 uL of antibiotic B (backbone), at a single dilution, were pipetted into all wells of a 96-well plate to be used.
20 uL of the lowest concentration of antibiotic C (first variable) was pipetted into column 1 of the 96-well plate. The second concentration (2-fold more concentrate) was pipetted into column 2. This process was repeated until all concentrations of antibiotic […] to be used were complete.
20 uL of the lowest concentration of antibiotic D (second variable) were pipetted into row A of the 96-well plate. The second concentration (2-fold more concentrate) was pipetted into row B. This process was repeated until all concentrations of antibiotic […] to be used were complete.
120 uL of sterile media (BHI/MHB2) was added.
20 ul of prepared bacterial culture was added.
Plates were sealed with lids and left to incubate for 16 hours, overnight.

In test [1] the test system is KPC (Klebsiella pneumoniae carbapenemase) producing K. pneumoniae. Kind of test: Chequerboard assay (percentage kill from OD600, MIC and FIC) of 4-mer combination against KPC producing K. pneumoniae. It counts as cell-based. The conditions noted are these: Example 4, backbone ceftazidime + colistin.
Source text: as §1
FICI or fractional inhibitory concentration index is the sum of the FICs of each antimicrobial when used in combination. […]
In this method, two antibiotics were “fixed” as part of a backbone whilst the two other antibiotics were varied over a doubling concentration scale beginning at the MIC (×1) for the effective dose in monotherapy against the organism being tested. The ΣFIC was then calculated as shown below. […]
Synergy can be expressed as “ΣFIC≤0.25×n”. […]
The bacteria were obtained from Ninewells Hospital and Medical School in Dundee, Scotland. […] The bacteria were measured for OD600 and readings of <0.25 were returned to the incubator. […]

The mark [2] stands for this setting: Example 1, backbone ceftazidime + doxycycline, colistin, rifampicin.
Setting [3] is: Example 2, backbone colistin + doxycycline, colistin, levofloxacin.
Setting [4] is: Example 3, backbone rifampicin + doxycycline, rifampicin, levofloxacin.
The mark [5] stands for this setting: Example 1, backbone ceftazidime + doxycycline.
[6] abbreviates: Example 1, backbone colistin + ceftazidime.
The mark [7] stands for this setting: Example 3, backbone rifampicin + doxycycline.
Setting [8] is: Example 2, backbone colistin + doxycycline.

Take `CC(C)(O/N=C(\C(=O)N[C@@H]1C(=O)N2C(C(=O)[O-])=C(C[n+]3ccccc3)CS[C@H]12)c1csc(N)n1)C(=O)O` [Ceftazidime]: in the test with ESBL E. coli (Escherichia coli, read-out: isolate resistant to ceftazidime at), the MIC was at least 32 µg/mL. The results for the MIC combination therapy (Y) in the test with ESBL E. coli (setting [2]), with ESBL E. coli (setting [3]) and with ESBL E. coli (setting [4]) were 4 µg/mL, 16 µg/mL and 16 µg/mL, respectively.
`CO[C@H]1/C=C/O[C@@]2(C)Oc3c(C)c(O)c4c(O)c(c(/C=N/N5CCN(C)CC5)c(O)c4c3C2=O)NC(=O)/C(C)=C\C=C\[C@H](C)[C@H](O)[C@@H](C)[C@@H](O)[C@@H](C)[C@H](OC(C)=O)[C@@H]1C` [Rifampicin]: the figures for the MIC Monotherapy (X) in the test on ESBL E. coli (setting [5]), in the test with ESBL E. coli (setting [6]) and in the test with ESBL E. coli (setting [7]) were 4 µg/mL, 4 µg/mL and 1 µg/mL, respectively. For the same compound, the MIC combination therapy (Y) with ESBL E. coli (setting [2]) was 0.5 µg/mL.
For `C[C@H]1c2cccc(O)c2C(=O)C2=C(O)[C@]3(O)C(=O)C(C(N)=O)=C(O)[C@@H](N(C)C)[C@@H]3[C@@H](O)[C@@H]21` [Doxycycline], the MIC Monotherapy (X) (in the test with ESBL E. coli (setting [5]); in the test with ESBL E. coli (setting [6]); in the test with ESBL E. coli (setting [8]); in the test with ESBL E. coli (setting [7]); in test [1] (drug alone)) was 1 µg/mL throughout. Further, the MIC combination therapy (Y) was 0.25 µg/mL in the test on ESBL E. coli (Example 1, backbone colistin + ceftazidime, colistin, rifampicin) and 0.25 µg/mL in test [1] (drug in 4-mer ceftazidime, doxycycline, rifampicin, colistin).
For the compound `C[C@H]1COc2c(N3CCN(C)CC3)c(F)cc3c(=O)c(C(=O)O)cn1c23` [Levofloxacin], the “Ratio Y:X” value in the test on ESBL E. coli (setting [8]) and with ESBL E. coli (setting [7]) was 0.03125 in each case. Also, the MIC Monotherapy (X) in the test with ESBL E. coli (setting [8]) and in the test with ESBL E. coli (setting [7]) was 8 µg/mL each time. In addition, the MIC combination therapy (Y) in the test with ESBL E. coli (setting [3]) and in the test on ESBL E. coli (setting [4]) was 0.25 µg/mL each time.

Values taken from patent publication US20260335307A1, “ANTIMICROBIAL COMBINATIONS” (Helperby Therapeutics Limited, priority 2022, published 2026).
